Several values for one entry are separate records, joined by “and”; a condition that tells them apart may be missing. Equal entries are not always repeated.
Tested on: Interleukin-1β (IL-1β) Production in HL-60 cells
Test: Inhibitory activity against interleukin-1β production (Test 1)
Type: cell-based
Settings: Homo sapiens, 72 h, lipopolysaccharide 10 μg/ml, culturing for 3 days, compared with control without test sample
Method: (Inhibitory activity against interleukin-1β production)
HL-60 cells were cultured for 4 days until confluence on RPMI 1640 medium with 10% fetal bovine serum (FBS) added thereto. The medium was centrifuged. The supernatant was discarded, and the cells were then suspended at 1×10^6 cells/me on RPMI 1640 medium with 3% FBS, and lipopolysaccharide was added to give a final concentration of 10 μg/ml. The culture was inoculated at 1 ml/well to a 24-well plate. A test compound was added at 1 μl/well, followed by culturing for 3 days. Three days later, the amount of interleukin-1β in each […] was determined by a comparison in yield with a control to which no test sample was added.

Row | IC50 [µM] | SMILES
1 | 0.53 | COc1ccc(-c2cc(N)c(=O)n(CC=Cc3ccc(Cl)cc3)n2)cc1 [Example 111, 4-amino-2-(4-chlorocinnamyl)-6-(4-methoxyphenyl)-2H-pyridazin-3-one]
2 | 0.31 | CNC(=O)c1cc(-c2ccc(OC)c(F)c2)nn(CC2CC2)c1=O [Example 63, 2-Cyclopropylmethyl-6-(3-fluoro-4-methoxyphenyl)-4-methylcarbamoyl-2H-pyridazin-3-one]
3 | 31.6 | COc1ccc(-c2cc(=O)[nH]nc2-c2ccc(OC)cc2)cc1 [Comp. Comp'd 4, reference compound]
4 | 29 | COc1ccc(-c2cc(=O)n(CCCl)nc2-c2ccc(OC)cc2)cc1 [Comp. Comp'd 1, reference compound]
5 | 0.4 | CNC(=O)C1CC(c2ccc(OC)cc2)=NN(CC(C)C)C1=O (centres unmarked) [Example 128, 4,5-dihydro-2-isobutyl-6-(4-methoxyphenyl)-4-methylcarbamoyl-2H-pyridazin-3-one]
6 | 0.038 | CNC(=O)c1cc(-c2ccc(OC)cc2)nn(CC2CC2)c1=O [Example 61, 2-Cyclopropylmethyl-6-(4-methoxyphenyl)-4-methylcarbamoyl-2H-pyridazin-3-one]
7 | 0.11 | CCNC(=O)c1cc(-c2ccc(OC)cc2)nn(CC2CC2)c1=O [Example 66, 2-Cyclopropylmethyl-4-ethylcarbamoyl-6-(4-methoxyphenyl)-2H-pyridazin-3-one]
8 | 0.357 | CNC(=O)c1cc(-c2ccc(OC)cc2)nn(CC(C)C)c1=O [Example 43, 2-Isobutyl-6-(4-methoxyphenyl)-4-methylcarbamoyl-2H-pyridazin-3-one]
9 | 46 | COc1ccc(-c2cc(=O)n(CCO)nc2-c2ccc(OC)cc2)cc1 [Comp. Comp'd 2, reference compound]
10 | 0.387 | COc1ccc(-c2cc(NC=O)c(=O)n(CC=Cc3ccc(Cl)cc3)n2)cc1 [Example 112, 2-(4-chlorocinnamyl)-4-formylamino-6-(4-methoxyphenyl)-2H-pyridazin-3-one]
11 | 0.05 | CCOC(=O)Nc1cc(-c2ccc(OC)cc2)nn(CC=Cc2ccc(Cl)cc2)c1=O [Example 87, 2-(4-Chlorocinnamyl)-4-ethoxycarbonylamino-6-(4-methoxyphenyl)-2H-pyridazin-3-one]

Tested on: not given
Test: not given
Settings: not given

Row | melting point | SMILES
12 | 142.7 to 143.2 °C | COc1ccc(-c2cc(N)c(=O)n(CC=Cc3ccc(Cl)cc3)n2)cc1 [Example 111, 4-amino-2-(4-chlorocinnamyl)-6-(4-methoxyphenyl)-2H-pyridazin-3-one]
13 | 124.2 to 125 °C | CNC(=O)C1CC(c2ccc(OC)cc2)=NN(CC(C)C)C1=O (centres unmarked) [Example 128, 4,5-dihydro-2-isobutyl-6-(4-methoxyphenyl)-4-methylcarbamoyl-2H-pyridazin-3-one]
14 | 136.6 to 137.5 °C | CNC(=O)c1cc(-c2ccc(OC)cc2)nn(CC2CC2)c1=O [Example 61, 2-Cyclopropylmethyl-6-(4-methoxyphenyl)-4-methylcarbamoyl-2H-pyridazin-3-one]
15 | 136.3 to 136.9 °C | CCNC(=O)c1cc(-c2ccc(OC)cc2)nn(CC2CC2)c1=O [Example 66, 2-Cyclopropylmethyl-4-ethylcarbamoyl-6-(4-methoxyphenyl)-2H-pyridazin-3-one]
16 | 124.9 to 125.2 °C | CNC(=O)c1cc(-c2ccc(OC)cc2)nn(CC(C)C)c1=O [Example 43, 2-Isobutyl-6-(4-methoxyphenyl)-4-methylcarbamoyl-2H-pyridazin-3-one]
17 | 195 to 195.5 °C | COc1ccc(-c2cc(NS(C)(=O)=O)c(=O)n(Cc3ccccc3)n2)cc1 [Example 122, 2-benzyl-4-methanesulfonylamino-6-(4-methoxyphenyl)-2H-pyridazin-3-one]
18 | 100.2 to 101.8 °C | COC(=O)c1cc(-c2ccc(SC)cc2)nn(CC2CC2)c1=O [Example 20, 2-Cyclopropylmethyl-4-methoxycarbonyl-6-[4-(methylthio)phenyl]-2H-pyridazin-3-one]
19 | 187.6 to 188.7 °C | COc1ccc(-c2cc(NC(=O)OCc3ccc(SC)cc3)c(=O)n(CC=Cc3ccc(Cl)cc3)n2)cc1 [Example 91, 2-(4-chlorocinnamyl)-6-(4-methoxyphenyl)-4-[4-(methylthio)benzyloxycarbonylamino]-2H-pyridazin-3-one]
20 | 131.3 to 132.3 °C | COC(=O)c1cc(-c2ccc(OC)c(F)c2)nn(CC=Cc2ccc(Cl)cc2)c1=O [Example 33, 2-(4-Chlorocinnamyl)-6-(3-fluoro-4-methoxyphenyl)-4-methoxycarbonyl-2H-pyridazin-3-one]
21 | 184.2 to 185.4 °C | CNC(=O)c1cc(-c2ccc(OC)cc2)nn(CC=Cc2ccc(Cl)cc2)c1=O [Example 85, 2-(4-Chlorocinnamyl)-6-(4-methoxyphenyl)-4-methylcarbamoyl-2H-pyridazin-3-one]
22 | 250.1 to 250.8 °C | CNC(=O)Cn1nc(-c2ccc(OC)cc2)cc(C(=O)NC)c1=O [Example 47, 6-(4-Methoxyphenyl)-4-methylcarbamoyl-2-methylcarbamoylmethyl-2H-pyridazin-3-one]
23 | 116 to 116.6 °C | CNC(=S)c1cc(-c2ccc(OC)cc2)nn(CC(C)C)c1=O [Example 130, 2-isobutyl-6-(4-methoxyphenyl)-4-methylthiocarbamoyl-2H-pyridazin-3-one]
24 | 152.1 to 162.5 °C | CCOC(=O)Nc1cc(-c2ccc(OC)cc2)nn(Cc2ccccc2)c1=O [Example 97, 2-benzyl-4-ethoxycarbonylamino-6-(4-methoxyphenyl)-2H-pyridazin-3-one]
25 | 211 to 212 °C | NC(=O)c1cc(-c2ccc(F)c(Cl)c2)nn(CC=Cc2ccccc2)c1=O [Example 127, 4-carbamoyl-6-(3-chloro-4-fluorophenyl)-2-cinnamyl-2H-pyridazin-3-one]
26 | 213 to 213.8 °C | COc1ccc(-c2cc(NC=O)c(=O)n(CC=Cc3ccc(Cl)cc3)n2)cc1 [Example 112, 2-(4-chlorocinnamyl)-4-formylamino-6-(4-methoxyphenyl)-2H-pyridazin-3-one]
27 | 119.7 to 120.1 °C | COc1ccc(-c2cc(C(=O)NCc3ccccc3)c(=O)n(CC3CC3)n2)cc1 [Example 68, 4-Benzylcarbamoyl-2-cyclopropylmethyl-6-(4-methoxyphenyl)-2H-pyridazin-3-one]

Row | melting point | SMILES
28 | 111.4 to 112.6 °C | CNC(=O)c1cc(-c2ccc(OC)c(OC)c2)nn(CC(C)C)c1=O [Example 53, 6-(3,4-Dimethoxyphenyl)-2-isobutyl-4-methylcarbamoyl-2H-pyridazin-3-one]
29 | 98.6 to 99.3 °C | COc1ccc(-c2cc(C(=O)NCc3ccccn3)c(=O)n(CC3CC3)n2)cc1 [Example 69, 2-Cyclopropylmethyl-6-(4-methoxyphenyl)-4-(2-pyridylmethyl)carbamoyl-2H-pyridazin-3-one]
30 | 123.3 to 126.2 °C | COC(=O)c1cc(-c2ccc(SC)cc2)nn(CC=Cc2ccc(Cl)cc2)c1=O [Example 35, 2-(4-Chlorocinnamyl)-4-methoxycarbonyl-6-[4-(methylthio)phenyl]-2H-pyridazin-3-one]
31 | 194.7 to 195.8 °C | CNC(=O)c1cc(-c2ccc(OC)cc2)nn(CC(=O)NCc2ccccn2)c1=O [Example 58, 6-(4-Methoxyphenyl)-4-methylcarbamoyl-2-(2-pyridylmethyl)carbamoylmethyl-2H-pyridazin-3-one]
32 | 178 to 178.5 °C | CNC(=S)c1cc(-c2ccc(OC)c(F)c2)nn(CC2CC2)c1=O [Example 129, 2-cyclopropylmethyl-6-(3-fluoro-4-methoxyphenyl)-4-methylthiocarbamoyl-2H-pyridazin-3-one]
33 | 144.8 to 145.8 °C | COc1ccc(-c2cc(C(=O)NCc3ccccc3)c(=O)n(C)n2)cc1 [Example 77, 4-Benzylcarbamoyl-6-(4-methoxyphenyl)-2-methyl-2H-pyridazin-3-one]
34 | 153.3 to 154.9 °C | COC(=O)c1cc(-c2ccc(OC)c(F)c2)nn(CC(C)C)c1=O [Example 12, 6-(3-Fluoro-4-methoxyphenyl)-2-isobutyl-4-methoxycarbonyl-2H-pyridaz in-3-one]
35 | 147.7 to 148.6 °C | CCC(=O)Nc1cc(-c2ccc(OC)cc2)nn(CC=Cc2ccc(Cl)cc2)c1=O [Example 114, 2-(4-chlorocinnamyl)-6-(4-methoxy-phenyl)-4-propionylamino-2H-pyridazin-3-one]
36 | 222.6 to 224 °C (dec.) | COc1ccc(-c2cc(C(=O)O)c(=O)n(CC=Cc3ccc(Cl)cc3)n2)cc1 [Example 86, 4-Carboxy-2-(4-chlorocinnamyl)-6-(4-methoxyphenyl)-2H-pyridazin-3-one]
37 | 171.2 to 172.1 °C | CCOC(=O)Nc1cc(-c2ccc(OC)cc2)nn(CC=Cc2ccc(Cl)cc2)c1=O [Example 87, 2-(4-Chlorocinnamyl)-4-ethoxycarbonylamino-6-(4-methoxyphenyl)-2H-pyridazin-3-one]
38 | 106.5 to 107.1 °C and 104.8 to 105.8 °C | CCCn1nc(-c2ccc(OC)cc2)cc(C(=O)OC)c1=O [Example 4, 4-Methoxycarbonyl-6-(4-methoxyphenyl)-2-n-propyl-2H-pyridazin-3-one]
39 | 126.6 to 127.5 °C | COc1ccc(-c2cc(C(=O)NCc3ccccn3)c(=O)n(CC3CCCC3)n2)cc1 [Example 76, 2-Cyclopentylmethyl-6-(4-methoxyphenyl)-4-(2-pyridylmethyl)carbamoyl-2H-pyridazin-3-one]
40 | 182.2 to 183.3 °C | COc1ccc(-c2cc(C(N)=O)c(=O)n(CC3CCCC3)n2)cc1 [Example 40, 4-Carbamoyl-2-cyclopentylmethyl-6-(4-methoxyphenyl)-2H-pyridazin-3-one]
41 | 104.2 to 105.5 °C | COC(=O)c1cc(-c2ccc(OC)c(OC)c2)nn(CC(C)C)c1=O [Example 11, 6-(3,4-Dimethoxyphenyl)-2-isobutyl-4-methoxycarbonyl-2H-pyridazin-3-one]
42 | 183 to 183.8 °C | COc1ccc(-c2cc(C(=O)O)c(=O)n(CC=Cc3ccc(Cl)cc3)n2)cc1Cl [Example 105, 4-carboxy-2-(4-chlorocinnamyl)-6-(3-chloro-4-methoxyphenyl)-2H-pyridazin-3-one]
43 | 109.9 to 110.2 °C | CCCNC(=O)c1cc(-c2ccc(OC)cc2)nn(CC2CCCC2)c1=O [Example 74, 2-Cyclopentylmethyl-6-(4-methoxyphenyl)-4-n-propylcarbamoyl-2H-pyridazin-3-one]

Row | SMILES | melting point
44 | CCCCOC(=O)Nc1cc(-c2ccc(OC)cc2)nn(CC=Cc2ccc(Cl)cc2)c1=O [Example 89, 4-n-butoxycarbonylamino-2-(4-chlorocinnamyl)-6-(4-methoxyphenyl)-2H-pyridazin-3-one] | 150.2 to 150.9 °C
